Reference: publication PMC10439028, “SGLT5 is the renal transporter for 1,5-anhydroglucitol, a major player in two rare forms of neutropenia” (Cellular and Molecular Life Sciences: CMLS, 2023)
Numbering of substitutions follows the chain as printed.

Experiments:
[1] = target: T1, hSGLT5 Gly471Glu (Homo sapiens, UniProt A0PJK1, G471E); test: 1,5-AG uptake in HEK293T cells overexpressing SGLT5 variant Gly471Glu; format: cell-based
T1 construct: pUB83-hSGLT5-iso2 as well as the various SGLT5 mutants obtained were used to transduce HEK293T cells; expressed in transfected cells; host or cells: HEK293T, lentiviral transduction (pUB83)
T1 sequence (A0PJK1 1-596 G471E): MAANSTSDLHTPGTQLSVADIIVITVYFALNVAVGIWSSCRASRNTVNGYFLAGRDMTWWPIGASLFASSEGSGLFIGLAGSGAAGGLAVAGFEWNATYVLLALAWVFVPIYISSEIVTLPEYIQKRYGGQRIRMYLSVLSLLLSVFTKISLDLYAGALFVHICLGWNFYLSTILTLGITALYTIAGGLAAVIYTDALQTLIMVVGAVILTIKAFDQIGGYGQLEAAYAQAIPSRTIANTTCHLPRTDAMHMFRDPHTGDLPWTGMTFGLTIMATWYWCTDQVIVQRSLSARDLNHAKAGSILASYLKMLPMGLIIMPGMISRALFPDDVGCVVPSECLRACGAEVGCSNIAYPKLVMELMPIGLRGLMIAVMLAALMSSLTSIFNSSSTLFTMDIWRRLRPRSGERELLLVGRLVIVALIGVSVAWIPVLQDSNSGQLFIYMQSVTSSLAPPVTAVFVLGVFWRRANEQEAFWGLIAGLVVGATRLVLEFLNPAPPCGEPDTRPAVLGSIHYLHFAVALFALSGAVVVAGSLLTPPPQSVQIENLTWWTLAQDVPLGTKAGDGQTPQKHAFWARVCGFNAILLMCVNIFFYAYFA
Protocol: (§1) For a typical transporter experiment we proceeded as follows. […] To minimize cell loss during the various washing steps in the radioactive uptake experiments, the wells where the cells were seeded were previously coated with poly- D-lysine, which improved their adhesion to the plastic surface of the wells. For this, each well of the 24-well plates was treated with 200 µl of a 0.01% poly-L-lysine solution for 10 min, washed 3 times with 1 ml of sterilized water and left to dry for 2 h. Only then could the 24-well plates be seeded with the appropriate cell lines and cultured overnight at 37 °C in 5% CO2.
On day two, the radioactive uptake assay could be performed. The cell culture media was removed by aspiration and cells were incubated for 20 min at 37 °C and 5% CO2 with a basal medium (10 mM HEPES, pH 7.4, 1 mM CaCl2, 1 mM MgCl2, 2 mM KCl) containing 140 mM choline chloride to deplete intracellular […] ions. This was subsequently replaced with the uptake medium (basal medium + 140 mM NaCl, 25 μM cytochalasin B, 1 mg/ml BSA) containing either radioactive U-[^14C]-mannose (15,000 cpm/well) or 2-[^3H]-1,5-AG (30,000 cpm/well) and respectively, non-radioactive mannose or 1,5-AG, at the required concentration in the experiment. Importantly, when measuring the transport of mannose, the uptake media also contained 0.5 mM glucose. This resulted from the need to reduce the background transport of mannose in control HEK293T cells in order to optimize the transport assay for this sugar in our model cell lines. […]
(§2) Once the uptake medium was added to the cells, the plates were incubated at 37 °C in 5% CO2 during the required time. […] In each experiment, the transport activities were calculated after subtracting a “blank” value, corresponding to the radioactivity in the appropriate control cells (HEK293T cells that were stably or transiently transfected with one of the parent plasmids pEF6/MycHisA, pEF6HisB, pUB82 or pUB83 with no inserted cDNA) that were analyzed in parallel. […]

[2] = target: T2, hSGLT5 Asn96Ile (Homo sapiens, UniProt A0PJK1, N96I); test: 1,5-AG uptake in HEK293T cells overexpressing SGLT5 variant Asn96Ile; format: cell-based
T2 construct: pUB83-hSGLT5-iso2 as well as the various SGLT5 mutants obtained were used to transduce HEK293T cells; expressed in transfected cells; host or cells: HEK293T, lentiviral transduction (pUB83)
T2 sequence (A0PJK1 1-596 N96I): T1 sequence (A0PJK1 1-596 G471E) with N96I, E471G
Protocol: as §1
On day two, the radioactive uptake assay could be performed. The cell culture media was removed by aspiration and cells were incubated for 20 min at 37 °C and 5% CO2 with a basal medium (10 mM HEPES, pH 7.4, 1 mM CaCl2, 1 mM MgCl2, 2 mM KCl) containing 140 mM choline chloride to deplete intracellular Na^2+ ions. […]
as §2

With OC[C@H]1OC[C@H](O)[C@@H](O)[C@@H]1O [1,5-AG, 1,5-anhydroglucitol] the Vmax ([1]; variant Gly471Glu) was “No transport”, the “effect of mutation on ability of SGLT5 to transport 1,5-AG” value ([1]; variant Gly471Glu) was “abolished” and the “Km for 1,5-AG” value ([1]; variant Gly471Glu (rs61741107)) was “No transport”. For the same compound, the Vmax [2] was 19.5 ± 3 pmol/min/10^5cells and the “reduction of transport efficiency compared to SGLT5” value [2] was “sixfold”.
